Experimental data from paper PMC12802110, “Biochemical characterization of the full-length isoform of soluble adenylyl cyclase” (The Journal of Biological Chemistry, 2025).
Like-named read-outs stand apart in the source and are kept apart here. Each block holds one compound with its values, some of them ahead of it.

How the values were obtained:
mouse sACfl = molecular target: T1, mouse sACfl (Mus musculus, UniProt Q8C0T9); assay: In vitro adenylyl cyclase activity assay (two-column method), endogenous mouse sACfl (FLAG); type: biochemical; settings: for EC50: 2 mM ATP
T1 construct: Schematic of full-length (sACfl) and truncated (sACt) sAC isoforms; from tissue; host or cells: testes of homozygous double knock-in mice (FLAG pulldown, eluted with 3xFLAG peptide)
Description: (§1) […]. To determine specific activities of endogenous mouse proteins, sACfl and sACt were quantitated by Western blot. For ATP kinetics, representative experiments are shown with SEM determined from normalized data.

human sACfl = molecular target: T2, human sACfl (Homo sapiens, UniProt Q96PN6); assay: In vitro adenylyl cyclase activity assay (two-column method), heterologously expressed human sACfl (GFP nanobody purified, complexed with Hsp70); type: biochemical; settings: for EC50: 2 mM ATP
T2 construct: Schematic of full-length (sACfl) and truncated (sACt) sAC isoforms; eGFP (C, cleaved yes); His-tag (on eGFP) (C, cleaved yes); PreScission protease site (C); made in house; host or cells: Expi293 cells

human sACt = molecular target: T3, human sACt (Homo sapiens, UniProt Q96PN6); assay: In vitro adenylyl cyclase activity assay (two-column method), heterologously expressed human sACt (GST); type: biochemical; settings: for EC50: 2 mM ATP
T3 construct: sACt contains only the C1 and C2 catalytic domains; GST; made in house
T3 sequence (Q96PN6 1-469 limits assumed): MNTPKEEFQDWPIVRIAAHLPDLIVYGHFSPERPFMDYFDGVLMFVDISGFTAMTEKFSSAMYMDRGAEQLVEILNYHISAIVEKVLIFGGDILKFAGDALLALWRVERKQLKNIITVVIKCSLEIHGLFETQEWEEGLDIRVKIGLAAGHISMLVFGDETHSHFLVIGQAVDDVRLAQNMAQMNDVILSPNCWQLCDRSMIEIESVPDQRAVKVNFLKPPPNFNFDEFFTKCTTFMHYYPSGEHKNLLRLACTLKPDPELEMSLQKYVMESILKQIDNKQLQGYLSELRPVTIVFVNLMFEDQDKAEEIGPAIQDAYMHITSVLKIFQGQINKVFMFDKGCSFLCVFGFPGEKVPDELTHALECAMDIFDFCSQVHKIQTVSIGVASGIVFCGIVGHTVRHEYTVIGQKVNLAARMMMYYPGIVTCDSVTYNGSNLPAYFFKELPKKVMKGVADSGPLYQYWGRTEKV

mouse sACt = molecular target: T4, mouse sACt (Mus musculus, UniProt Q8C0T9); assay: In vitro adenylyl cyclase activity assay (two-column method), endogenous mouse sACt (Strep); type: biochemical; settings: for EC50: 2 mM ATP
T4 construct: from tissue; host or cells: testes of homozygous double knock-in mice (Strep pulldown after FLAG depletion, eluted with biotin)
T4 sequence (Q8C0T9 1-471 isoform Q8C0T9-2): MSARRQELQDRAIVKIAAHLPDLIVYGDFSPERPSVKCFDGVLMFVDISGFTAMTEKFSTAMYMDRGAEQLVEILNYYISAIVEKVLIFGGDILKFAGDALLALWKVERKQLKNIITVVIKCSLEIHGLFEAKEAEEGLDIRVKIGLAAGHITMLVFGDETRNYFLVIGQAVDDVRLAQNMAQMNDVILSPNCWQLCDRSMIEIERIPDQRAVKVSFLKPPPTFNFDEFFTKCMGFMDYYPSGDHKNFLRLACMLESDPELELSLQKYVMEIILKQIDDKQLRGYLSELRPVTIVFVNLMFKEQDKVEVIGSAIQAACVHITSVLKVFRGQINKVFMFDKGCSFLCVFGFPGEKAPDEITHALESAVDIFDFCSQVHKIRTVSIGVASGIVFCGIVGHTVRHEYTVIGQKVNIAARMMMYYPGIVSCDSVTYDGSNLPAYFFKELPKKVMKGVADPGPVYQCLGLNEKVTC
Description: as §1

sAC = test system: sAC; design: method as in PMID 24100033; settings: read-out: KM of sAC's substrate ATP; cited from earlier work
[1] = test system: mouse and human sACfl and sACt; assay: In vitro adenylyl cyclase activity assay, one result stated for all four sAC proteins; type: biochemical; settings: for inhibition of cyclase activity at 10 mM: 10 mM test substance
[2] = molecular target: T5, mouse sAC isoforms (sACfl and sACt) (Mus musculus, UniProt Q8C0T9); assay: In vitro adenylyl cyclase activity assay, one result stated for both mouse sAC isoforms; settings: read-out: IC50, mouse sAC; text summary (Fig. 5)
T5 sequence (Q8C0T9 1-469 limits assumed): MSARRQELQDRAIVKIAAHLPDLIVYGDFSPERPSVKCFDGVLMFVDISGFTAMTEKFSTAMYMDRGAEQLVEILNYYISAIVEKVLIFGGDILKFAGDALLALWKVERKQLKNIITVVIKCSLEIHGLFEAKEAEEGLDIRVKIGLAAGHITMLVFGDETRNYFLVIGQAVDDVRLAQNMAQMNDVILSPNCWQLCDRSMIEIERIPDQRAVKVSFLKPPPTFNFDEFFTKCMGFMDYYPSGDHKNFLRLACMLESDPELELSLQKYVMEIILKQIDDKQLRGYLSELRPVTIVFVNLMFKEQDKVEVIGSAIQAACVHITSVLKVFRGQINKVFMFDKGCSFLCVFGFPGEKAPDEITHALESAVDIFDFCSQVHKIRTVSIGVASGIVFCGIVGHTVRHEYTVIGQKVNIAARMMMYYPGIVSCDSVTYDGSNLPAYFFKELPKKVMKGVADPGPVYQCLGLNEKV

[3] = 10 mM MgCl2, 10 mM CaCl2, read-out: EC50 for HCO3^-
[4] = in the presence of Mg^2+, Ca^2+ and HCO3^- (20-40 mM MgCl2, 10 mM CaCl2, 40 mM NaHCO3), read-out: KM for substrate Mg^2+-ATP
[5] = 2 mM ATP, 10 mM MgCl2, 10 mM CaCl2, 40 mM NaHCO3
[6] = 10 mM MgCl2, 10 mM CaCl2, 40 mM NaHCO3
[7] = 10 mM MgCl2, 40 mM NaHCO3, read-out: EC50 for Ca^2+

T2 sequence (Q96PN6 whole entry, the tested form may be a part, canonical isoform): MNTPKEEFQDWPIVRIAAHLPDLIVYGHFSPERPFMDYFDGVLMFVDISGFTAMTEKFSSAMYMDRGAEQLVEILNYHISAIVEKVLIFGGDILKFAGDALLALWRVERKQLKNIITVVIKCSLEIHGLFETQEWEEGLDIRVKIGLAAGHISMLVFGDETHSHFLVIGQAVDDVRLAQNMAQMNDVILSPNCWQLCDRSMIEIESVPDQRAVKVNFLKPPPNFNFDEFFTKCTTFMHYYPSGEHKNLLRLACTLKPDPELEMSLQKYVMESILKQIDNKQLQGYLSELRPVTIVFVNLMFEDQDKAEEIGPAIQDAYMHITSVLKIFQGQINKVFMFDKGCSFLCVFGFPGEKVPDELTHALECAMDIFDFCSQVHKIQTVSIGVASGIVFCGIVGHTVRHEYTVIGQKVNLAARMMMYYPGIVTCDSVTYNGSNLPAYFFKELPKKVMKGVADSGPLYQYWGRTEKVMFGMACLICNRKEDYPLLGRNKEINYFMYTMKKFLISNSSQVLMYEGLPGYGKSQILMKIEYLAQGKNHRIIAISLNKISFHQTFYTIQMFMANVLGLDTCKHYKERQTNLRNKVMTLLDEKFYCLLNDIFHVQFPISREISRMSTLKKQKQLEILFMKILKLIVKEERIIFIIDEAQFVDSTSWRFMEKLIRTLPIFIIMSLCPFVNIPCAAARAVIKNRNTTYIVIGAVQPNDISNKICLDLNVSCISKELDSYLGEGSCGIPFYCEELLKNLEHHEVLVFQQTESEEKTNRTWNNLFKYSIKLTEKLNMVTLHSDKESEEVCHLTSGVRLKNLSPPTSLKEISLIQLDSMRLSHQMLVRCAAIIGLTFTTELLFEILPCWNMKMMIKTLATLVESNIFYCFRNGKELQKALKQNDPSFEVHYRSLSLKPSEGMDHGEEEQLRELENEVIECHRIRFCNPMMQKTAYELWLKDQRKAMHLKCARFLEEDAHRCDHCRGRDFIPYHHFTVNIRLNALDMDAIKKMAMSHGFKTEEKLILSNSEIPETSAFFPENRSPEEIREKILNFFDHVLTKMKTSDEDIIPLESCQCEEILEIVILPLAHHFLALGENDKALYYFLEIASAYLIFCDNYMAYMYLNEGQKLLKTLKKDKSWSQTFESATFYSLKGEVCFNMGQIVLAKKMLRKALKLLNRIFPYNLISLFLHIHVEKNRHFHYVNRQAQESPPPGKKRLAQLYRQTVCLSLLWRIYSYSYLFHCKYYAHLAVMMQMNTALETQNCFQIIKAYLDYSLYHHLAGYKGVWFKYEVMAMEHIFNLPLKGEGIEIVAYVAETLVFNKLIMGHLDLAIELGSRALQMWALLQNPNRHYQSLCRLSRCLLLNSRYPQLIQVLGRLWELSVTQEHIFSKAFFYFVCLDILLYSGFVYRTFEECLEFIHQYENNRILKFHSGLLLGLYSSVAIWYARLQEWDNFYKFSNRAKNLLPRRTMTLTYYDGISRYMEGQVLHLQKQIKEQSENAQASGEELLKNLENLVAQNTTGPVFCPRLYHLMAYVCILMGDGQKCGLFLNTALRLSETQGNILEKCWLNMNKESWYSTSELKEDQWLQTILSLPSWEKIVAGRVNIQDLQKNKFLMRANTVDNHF
T2 sequence (P0DMV8 whole entry partner, the tested form may be a part, canonical isoform): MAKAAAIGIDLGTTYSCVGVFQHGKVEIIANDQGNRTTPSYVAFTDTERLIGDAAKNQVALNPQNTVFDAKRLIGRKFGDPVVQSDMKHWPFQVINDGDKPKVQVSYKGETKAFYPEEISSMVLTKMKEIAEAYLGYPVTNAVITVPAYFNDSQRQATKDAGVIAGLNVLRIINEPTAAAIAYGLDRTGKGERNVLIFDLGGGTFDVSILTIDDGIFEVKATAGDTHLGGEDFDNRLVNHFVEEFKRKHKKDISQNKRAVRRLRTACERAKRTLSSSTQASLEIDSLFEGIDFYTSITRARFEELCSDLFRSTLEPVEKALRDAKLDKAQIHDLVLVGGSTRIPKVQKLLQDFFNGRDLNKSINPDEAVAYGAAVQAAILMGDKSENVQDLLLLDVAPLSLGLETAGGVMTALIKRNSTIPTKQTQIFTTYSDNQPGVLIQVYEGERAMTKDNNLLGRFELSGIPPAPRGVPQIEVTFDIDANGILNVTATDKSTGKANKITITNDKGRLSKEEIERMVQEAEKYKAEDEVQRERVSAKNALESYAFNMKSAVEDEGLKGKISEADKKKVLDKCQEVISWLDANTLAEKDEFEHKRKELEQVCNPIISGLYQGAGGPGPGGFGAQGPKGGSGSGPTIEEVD
T1 sequence (Q8C0T9 whole entry, the tested form may be a part, canonical isoform): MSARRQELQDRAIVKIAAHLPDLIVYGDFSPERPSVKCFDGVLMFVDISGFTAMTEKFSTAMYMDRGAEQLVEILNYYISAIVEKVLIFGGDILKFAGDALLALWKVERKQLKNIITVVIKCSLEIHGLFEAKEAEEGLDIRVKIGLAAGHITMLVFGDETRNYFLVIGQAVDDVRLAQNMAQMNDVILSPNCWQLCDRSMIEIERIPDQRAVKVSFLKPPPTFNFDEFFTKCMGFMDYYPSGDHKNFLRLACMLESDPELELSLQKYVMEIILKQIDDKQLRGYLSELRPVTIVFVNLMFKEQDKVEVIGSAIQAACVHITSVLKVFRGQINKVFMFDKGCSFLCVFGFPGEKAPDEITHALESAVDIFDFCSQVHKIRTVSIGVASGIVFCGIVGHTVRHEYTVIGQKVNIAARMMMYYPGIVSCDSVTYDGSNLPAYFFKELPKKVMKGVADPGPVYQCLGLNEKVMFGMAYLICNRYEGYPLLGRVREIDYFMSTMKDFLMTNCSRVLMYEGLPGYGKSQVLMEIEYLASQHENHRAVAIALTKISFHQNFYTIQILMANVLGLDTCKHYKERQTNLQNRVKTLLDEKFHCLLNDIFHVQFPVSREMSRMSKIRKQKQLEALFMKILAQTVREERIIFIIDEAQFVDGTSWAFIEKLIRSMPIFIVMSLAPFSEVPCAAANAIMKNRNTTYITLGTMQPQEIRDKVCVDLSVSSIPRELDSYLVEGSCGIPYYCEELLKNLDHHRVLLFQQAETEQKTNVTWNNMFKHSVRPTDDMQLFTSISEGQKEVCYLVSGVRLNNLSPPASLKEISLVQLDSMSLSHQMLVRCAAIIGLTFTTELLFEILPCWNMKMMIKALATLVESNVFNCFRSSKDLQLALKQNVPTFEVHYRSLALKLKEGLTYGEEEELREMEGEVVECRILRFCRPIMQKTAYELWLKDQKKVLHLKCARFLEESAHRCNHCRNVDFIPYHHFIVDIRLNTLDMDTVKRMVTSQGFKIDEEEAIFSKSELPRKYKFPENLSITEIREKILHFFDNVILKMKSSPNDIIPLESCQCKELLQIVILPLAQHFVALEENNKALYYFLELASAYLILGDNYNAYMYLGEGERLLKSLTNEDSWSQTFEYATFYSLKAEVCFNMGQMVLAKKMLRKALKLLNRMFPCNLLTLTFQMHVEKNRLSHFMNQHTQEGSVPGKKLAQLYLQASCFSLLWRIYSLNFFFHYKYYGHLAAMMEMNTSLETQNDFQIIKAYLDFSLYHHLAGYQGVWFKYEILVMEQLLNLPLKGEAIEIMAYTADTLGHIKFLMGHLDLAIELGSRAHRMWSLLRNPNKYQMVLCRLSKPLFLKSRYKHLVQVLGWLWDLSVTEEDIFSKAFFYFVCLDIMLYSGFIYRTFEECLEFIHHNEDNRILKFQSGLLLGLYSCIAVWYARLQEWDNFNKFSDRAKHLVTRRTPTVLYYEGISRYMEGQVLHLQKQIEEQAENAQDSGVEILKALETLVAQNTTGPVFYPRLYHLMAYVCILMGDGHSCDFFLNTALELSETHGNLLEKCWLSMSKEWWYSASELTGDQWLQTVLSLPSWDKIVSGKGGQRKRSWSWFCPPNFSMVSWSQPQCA

EC50 (mouse sACfl; [3]): 21 ± 1.9 mM
EC50 (human sACfl; [3]): 14 ± 1.2 mM
EC50 (human sACt; [3]): 14 ± 1 mM
EC50 (mouse sACt; [3]): 19 ± 1.6 mM
Structure (SMILES): O=C(O)O [HCO3^–]

Km (mouse sACfl; [4]): 2200 ± 390 µM
Km (human sACfl; [4]): 2200 ± 300 µM
Km (human sACt; [4]): 1800 ± 280 µM
Km (mouse sACt; [4]): 2700 ± 250 µM
Structure (SMILES): Nc1ncnc2c1ncn2[C@@H]1O[C@H](COP(=O)(O)OP(=O)(O)OP(=O)(O)O)[C@@H](O)[C@H]1O [ATP]
Km (sAC): ~2000 µM

inhibition of cyclase activity at 1 mM ([1]; 1 mM test substance, 2 mM ATP, 10 mM MgCl2, 10 mM CaCl2, 40 mM NaHCO3): ~25%
inhibition of cyclase activity at 10 mM [1, 5]: > 90%
inhibition of cyclase activity (in words) ([1]; at 1 mM): slight inhibition
inhibition of cyclase activity (in words) ([1]; at concentrations >10 mM): fully inhibited
Structure (SMILES): O=P(O)(O)OP(=O)(O)O [Pyrophosphate]

Structure (SMILES): Nc1nc(Cl)cc(-c2nn(C(F)F)cc2Cc2ccccc2OCCN2CCOC[C@H]2CO)n1 [TDI-11861]
IC50 (mouse sACfl; [6]): 22.4 ± 9.3 nM
IC50 [2]: ~21 nM
IC50 (mouse sACt; [6]): 21.1 ± 4.5 nM

inhibition of cyclase activity at 10 mM [1, 5]: No inhibition at 10 mM
inhibition of cyclase activity (in words) ([1]; at concentrations up to 10 mM): no inhibition
Structure (SMILES): Nc1nc2c(ncn2[C@@H]2O[C@H](COP(=O)(O)O)[C@@H](O)[C@H]2O)c(=O)[nH]1 [GMP]

inhibition of cyclase activity at 10 mM [1, 5]: ∼50% inhibition at 10 mM
Structure (SMILES): Cc1cn([C@H]2C[C@H](O)[C@@H](COP(=O)(O)OP(=O)(O)OP(=O)(O)O)O2)c(=O)[nH]c1=O [TTP]

inhibition of cyclase activity at 10 mM [1, 5]: >50% inhibition at 10 mM
Structure (SMILES): Nc1ccn([C@@H]2O[C@H](COP(=O)(O)OP(=O)(O)OP(=O)(O)O)[C@@H](O)[C@H]2O)c(=O)n1 [CTP]

EC50 (mouse sACfl; [7]): 1.3 ± 0.15 mM
EC50 (human sACfl; [7]): 1.7 ± 0.15 mM
EC50 (human sACt; [7]): 1.7 ± 0.16 mM
EC50 (mouse sACt; [7]): 1.4 ± 0.11 mM
Structure (SMILES): [Ca+2].[Cl-].[Cl-] [Ca^2+]

inhibition of cyclase activity at 10 mM [1, 5]: >50% inhibition at 10 mM
inhibition of cyclase activity (in words) ([1]; at 10 mM): some inhibition
Structure (SMILES): Nc1ncnc2c1ncn2[C@@H]1O[C@H](CO)[C@@H](O)[C@H]1O [Adenosine]

inhibition of cyclase activity at 10 mM [1, 5]: ∼75% inhibition at 10 mM
inhibition of cyclase activity (in words) ([1]; at 10 mM): some inhibition
Structure (SMILES): Nc1ncnc2c1ncn2[C@@H]1O[C@H](COP(=O)(O)OP(=O)(O)O)[C@@H](O)[C@H]1O [ADP]

inhibition of cyclase activity at 10 mM [1, 5]: ∼50% inhibition at 10 mM
Structure (SMILES): O=c1[nH]cnc2c1ncn2[C@@H]1O[C@H](COP(=O)(O)OP(=O)(O)OP(=O)(O)O)[C@@H](O)[C@H]1O [ITP]

inhibition of cyclase activity at 10 mM [1, 5]: No inhibition at 10 mM
inhibition of cyclase activity (in words) ([1]; at concentrations up to 10 mM): no inhibition
Structure (SMILES): Nc1ncnc2c1ncn2[C@@H]1O[C@H](COP(=O)(O)O)[C@@H](O)[C@H]1O [AMP]

inhibition of cyclase activity at 10 mM [1, 5]: ∼75% inhibition at 10 mM
inhibition of cyclase activity (in words) ([1]; at 10 mM): some inhibition
Structure (SMILES): Nc1nc2c(ncn2[C@@H]2O[C@H](COP(=O)(O)OP(=O)(O)O)[C@@H](O)[C@H]2O)c(=O)[nH]1 [GDP]

inhibition of cyclase activity at 10 mM [1, 5]: ∼50% inhibition at 10 mM
Structure (SMILES): O=c1ccn([C@@H]2O[C@H](COP(=O)(O)OP(=O)(O)OP(=O)(O)O)[C@@H](O)[C@H]2O)c(=O)[nH]1 [UTP]

inhibition of cyclase activity at 10 mM [1, 5]: ∼50% inhibition at 10 mM
Structure (SMILES): Nc1nc2c(ncn2[C@@H]2O[C@H](COP(=O)(O)OP(=O)(O)OP(=O)(O)O)[C@@H](O)[C@H]2O)c(=O)[nH]1 [GTP]
